Source: US11584755B2 (IDEAYA BIOSCIENCES, INC., priority 2017, dated 2023)

The molecules below were run against hFEN1 (Homo sapiens (Human), UniProt P39748) (assay: Enzymatic IC50 assay, FAM-labeled DNA oligomer substrate, fluorescence intensity (FEN1)). Conditions: hFEN1 70 pM, substrate 100 nM, reaction time 20 minutes, 23° C.
Assay type: biochemical
Protocol: FEN1, EXO1 or XPG enzyme was incubated with compound or vehicle (DMSO) and the FAM-labeled DNA oligomer substrate in a microtiter plate. The stop buffer contains EDTA to stop the enzymatic reaction. The plate is read for fluorescence intensity. The high control (DMSO) with high fluorescence intensity represents no inhibition of enzymatic reaction while the low control (10 μM) with low fluorescence intensity represents full inhibition of enzymatic reaction.
• FEN1 • hFEN1: 70 pM • Substrate: 100 nM • Reaction time: 20 minutes • EXO1 • hEXO1: 6 nM, Isoforml • Substrate: 30 nM • Reaction time: 60 minutes • XPG • hXPG: 100 nM • Substrate: 100 nM • Reaction time: 120 minutes
Annealing Buffer: 50 mM Tris-HCl, 50 mM NaCl, 1 mM DTT Assay buffer: 50 mM Tris-HCl pH 8.0, 10 mM MgCl2, 0.01% BSA, 1 mM DTT Stop buffer: 50 mM EDTA in assay buffer Temperature: 23° C. Total volume: 40 μl Controls: • 0% inhibition control: DMSO • 100% inhibition control: 10 μM (final) 5-chloro-3-hydroxy-1,3-dihydroquinazoline-2,4-dione Enzyme Reaction and Detection: • 1. Prepare 25 μM intermediate stock of the substrate by diluting SEQ ID NO:1, SEQ ID NO:2, and SEQ ID NO:3 in annealing buffer, in a PCR tube. • 2. Place the PCR tube on a heat block, heat at 95° C. for 3 minutes, then drop in 0.2° C. increments over 2 minutes, stopping at 25° C. • 3. Remove the tube and let the tube cool at room temperature. • 4. Transfer 10 μL of 3× final concentration test compounds or DMSO to the appropriate wells of a microtiter plate. • 5. Transfer 10 μL of 3× final concentration enzyme in assay buffer or assay buffer alone to the appropriate wells. • 6. Incubate the plate at room temperature for 15 minutes. • 7. Transfer 10 μL of 3× substrate in assay buffer to all the test wells. • 8. Incubate the plate at room temperature for prescribed reaction time. • 9. Centrifuge the plate at 1000 rpm for 1 minute. • 10. Transfer 10 μL of stop buffer to all the test wells. • 11. Centrifuge the plate at 1000 rpm for 1 minute. • 12. Read the plate on a plate reader.

hFEN1, sequence (P39748 whole entry): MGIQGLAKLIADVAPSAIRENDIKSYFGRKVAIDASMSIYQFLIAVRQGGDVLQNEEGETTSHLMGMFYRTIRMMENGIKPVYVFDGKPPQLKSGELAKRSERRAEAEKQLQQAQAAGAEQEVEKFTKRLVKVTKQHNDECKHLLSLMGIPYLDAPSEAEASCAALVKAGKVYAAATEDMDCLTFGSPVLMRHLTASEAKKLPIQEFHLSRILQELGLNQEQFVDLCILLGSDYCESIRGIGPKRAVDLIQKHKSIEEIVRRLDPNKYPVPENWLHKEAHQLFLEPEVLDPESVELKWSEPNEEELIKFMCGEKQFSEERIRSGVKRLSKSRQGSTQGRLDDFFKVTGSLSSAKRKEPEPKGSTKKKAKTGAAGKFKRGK

Row | Structure (SMILES) | IC50 [nM]
1 | COc1ccccc1Cn1c(=O)c(O)c(C(=O)O)c2sccc21 [Example 64, 6-hydroxy-4-(2-methoxybenzyl)-5-oxo-4,5-dihydrothieno[3,2-b]pyridine-7-carboxylic acid] | 2250 to 10000
2 | CC(=O)Nc1cc(Cn2c(=O)c(O)c(C(=O)O)c3sccc32)ccc1Cl [Example 65, 4-(3-acetamido-4-chlorobenzyl)-6-hydroxy-5-oxo-4,5-dihydrothieno[3,2-b]pyridine-7-carboxylic acid] | 250 to 750
3 | CNC(=O)c1ccc(Cn2c(=O)c(O)c(C(=O)O)c3sccc32)cc1 [Example 67, 6-hydroxy-4-(4-(methylcarbamoyl)benzyl)-5-oxo-4,5-dihydrothieno[3,2-b]pyridine-7-carboxylic acid] | 250 to 750
4 | O=C(O)c1c(O)c(=O)n(Cc2ccccc2F)c2ccsc12 [Example 68, 4-(2-fluorobenzyl)-6-hydroxy-5-oxo-4,5-dihydrothieno[3,2-b]pyridine-7-carboxylic acid] | 2250 to 10000
5 | O=C(O)c1c(O)c(=O)n(CC2CCOCC2)c2ccsc12 [Example 69, 6-hydroxy-5-oxo-4-[(tetrahydro-2H-pyran-4-yl)methyl]-4,5-dihydrothieno[3,2-b]pyridine-7-carboxylic acid] | 2250 to 10000
6 | COc1ccc(Cn2c(=O)c(O)c(C(=O)O)c3sccc32)cc1OC [Example 71, 4-(3,4-dimethoxybenzyl)-6-hydroxy-5-oxo-4,5-dihydrothieno[3,2-b]pyridine-7-carboxylic acid] | 250 to 750
7 | Nc1ccc(Cn2c(=O)c(O)c(C(=O)O)c3sccc32)cc1Cl [Example 73, 4-(4-amino-3-chlorobenzyl)-6-hydroxy-5-oxo-4,5-dihydrothieno[3,2-b]pyridine-7-carboxylic acid] | 250 to 750
8 | O=C(O)c1c(O)c(=O)n(CC2COCCO2)c2ccsc12 (stereo not shown) [Example 74, 4-((1,4-dioxan-2-yl)methyl)-6-hydroxy-5-oxo-4,5-dihydrothieno[3,2-b]pyridine-7-carboxylic acid] | 2250 to 10000
9 | O=C1CC(Cn2c(=O)c(O)c(C(=O)O)c3sccc32)CN1 (stereo not shown) [Example 76, 6-hydroxy-5-oxo-4-[(5-oxopyrrolidin-3-yl)methyl]-4,5-dihydrothieno[3,2-b]pyridine-7-carboxylic acid] | 250 to 750
10 | O=C(O)c1c(O)c(=O)n(Cc2ccc3ccc(=O)[nH]c3c2)c2ccsc12 [Example 77, 6-hydroxy-5-oxo-4-[(2-oxo-1,2-dihydroquinolin-7-yl)methyl]-4,5-dihydrothieno[3,2-b]pyridine-7-carboxylic acid] | 250 to 750
11 | O=C(O)c1c(O)c(=O)n(CC2CCCOC2)c2ccsc12 (stereo not shown) [Example 79, 6-hydroxy-5-oxo-4-[(tetrahydro-2H-pyran-3-yl)methyl]-4,5-dihydrothieno[3,2-b]pyridine-7-carboxylic acid] | 2250 to 10000
12 | O=C(O)c1c(O)c(=O)n(CC2COc3ccccc3C2)c2ccsc12 (stereo not shown) [Example 80, 4-(chroman-3-ylmethyl)-6-hydroxy-5-oxo-4,5-dihydrothieno[3,2-b]pyridine-7-carboxylic acid] | 2250 to 10000
13 | Cc1cc(Cn2c(=O)c(O)c(C(=O)O)c3sccc32)no1 [Example 82, 6-hydroxy-4-[(5-methylisoxazol-3-yl)methyl]-5-oxo-4,5-dihydrothieno[3,2-b]pyridine-7-carboxylic acid] | 750 to 2250
14 | COc1ccc(Cn2c(=O)c(O)c(C(=O)O)c3sccc32)cc1NC(C)=O [Example 89, 4-(3-acetamido-4-methoxybenzyl)-6-hydroxy-5-oxo-4,5-dihydrothieno[3,2-b]pyridine-7-carboxylic acid] | 250 to 750
15 | O=C(O)c1c(O)c(=O)n(Cc2nnc(-c3ccccc3)s2)c2ccsc12 [Example 93, 6-hydroxy-5-oxo-4-[(5-phenyl-1,3,4-thiadiazol-2-yl)methyl]-4,5-dihydrothieno[3,2-b]pyridine-7-carboxylic acid] | < 200
16 | Cc1nnc(Cn2c(=O)c(O)c(C(=O)O)c3sccc32)s1 [Example 94, 6-hydroxy-4-[(5-methyl-1,3,4-thiadiazol-2-yl)methyl]-5-oxo-4,5-dihydrothieno[3,2-b]pyridine-7-carboxylic acid] | 250 to 750
17 | O=C(O)c1c(O)c(=O)n(Cc2cn3ccccc3n2)c2ccsc12 [Example 102, 6-hydroxy-4-(imidazo[1,2-a]pyridin-2-ylmethyl)-5-oxo-4,5-dihydrothieno[3,2-b]pyridine-7-carboxylic acid] | 750 to 2250
18 | O=C(O)c1c(O)c(=O)n(Cc2cncc(-c3ccccc3)c2)c2ccsc12 [Example 103, 6-hydroxy-5-oxo-4-[(5-phenylpyridin-3-yl)methyl]-4,5-dihydrothieno[3,2-b]pyridine-7-carboxylic acid] | 250 to 750
19 | O=C(O)c1c(O)c(=O)n(Cc2cncc3ccccc23)c2ccsc12 [Example 104, 6-hydroxy-4-(isoquinolin-4-ylmethyl)-5-oxo-4,5-dihydrothieno[3,2-b]pyridine-7-carboxylic acid] | 2250 to 10000

Now from value to molecule:

Row | IC50 [nM] | Structure (SMILES)
20 | 250 to 750 | Cc1ncc(Cn2c(=O)c(O)c(C(=O)O)c3sccc32)o1 [Example 95, 6-hydroxy-4-[(2-methyloxazol-5-yl)methyl]-5-oxo-4,5-dihydrothieno[3,2-b]pyridine-7-carboxylic acid]
21 | 250 to 750 | O=C(O)c1c(O)c(=O)n(Cc2cnn(-c3ccc(Cl)cc3)c2)c2ccsc12 [Example 105, 4-{[1-(4-chlorophenyl)-1H-pyrazol-4-yl]methyl}-6-hydroxy-5-oxo-4,5-dihydrothieno[3,2-b]pyridine-7-carboxylic acid]
22 | < 200 | COc1ccccc1-n1cc(Cn2c(=O)c(O)c(C(=O)O)c3sccc32)cn1 [Example 106, 6-hydroxy-4-{[1-(2-methoxyphenyl)-1H-pyrazol-4-yl]methyl}-5-oxo-4,5-dihydrothieno[3,2-b]pyridine-7-carboxylic acid]
23 | < 200 | O=C(O)c1c(O)c(=O)n(Cc2cnn(-c3ccccc3[N+](=O)[O-])c2)c2ccsc12 [Example 107, 6-hydroxy-4-{[1-(2-nitrophenyl)-1H-pyrazol-4-yl]methyl}-5-oxo-4,5-dihydrothieno[3,2-b]pyridine-7-carboxylic acid]
24 | 250 to 750 | CS(=O)(=O)Nc1ccccc1-n1cc(Cn2c(=O)c(O)c(C(=O)O)c3sccc32)cn1 [Example 108, 6-hydroxy-4-{[1-(2-(methylsulfonamido)phenyl]-1H-pyrazol-4-yl}methyl)-5-oxo-4,5-dihydrothieno[3,2-b]pyridine-7-carboxylic acid]
25 | 750 to 2250 | CC(=O)Nc1ccccc1-n1cc(Cn2c(=O)c(O)c(C(=O)O)c3sccc32)cn1 [Example 109, 4-{[1-(2-acetamidophenyl)-1H-pyrazol-4-yl]methyl}-6-hydroxy-5-oxo-4,5-dihydrothieno[3,2-b]pyridine-7-carboxylic acid]
26 | < 200 | N#Cc1ccc(-n2cc(Cn3c(=O)c(O)c(C(=O)O)c4sccc43)cn2)cc1 [Example 110, 4-{[1-(4-cyanophenyl)-1H-pyrazol-4-yl]methyl}-6-hydroxy-5-oxo-4,5-dihydrothieno[3,2-b]pyridine-7-carboxylic acid]
27 | 250 to 750 | O=C(O)c1c(O)c(=O)n(Cc2cnn(-c3ccncc3)c2)c2ccsc12 [Example 112, 6-hydroxy-5-oxo-4-{[1-(pyridin-4-yl)-1H-pyrazol-4-yl]methyl}-4,5-dihydrothieno[3,2-b]pyridine-7-carboxylic acid]
28 | < 200 | Nc1ccc(-n2cc(Cn3c(=O)c(O)c(C(=O)O)c4sccc43)cn2)cc1 [Example 118, 4-{[1-(4-aminophenyl)-1H-pyrazol-4-yl]methyl}-6-hydroxy-5-oxo-4,5-dihydrothieno[3,2-b]pyridine-7-carboxylic acid]
29 | < 200 | O=C(O)c1c(O)c(=O)n(Cc2cnn(Cc3cncs3)c2)c2ccsc12 [Example 123, 6-hydroxy-5-oxo-4-{[1-(thiazol-5-ylmethyl)-1H-pyrazol-4-yl]methyl}-4,5-dihydrothieno[3,2-b]pyridine-7-carboxylic acid]
30 | < 200 | Cn1nccc1Cn1cc(Cn2c(=O)c(O)c(C(=O)O)c3sccc32)cn1 [Example 124, 6-hydroxy-4-({1-[(1-methyl-1H-pyrazol-5-yl)methyl]-1H-pyrazol-4-yl}methyl)-5-oxo-4,5-dihydrothieno[3,2-b]pyridine-7-carboxylic acid]
31 | < 200 | COc1cc(Cn2cc(Cn3c(=O)c(O)c(C(=O)O)c4sccc43)cn2)ccn1 [Example 129, 6-hydroxy-4-({1-[(2-methoxypyridin-4-yl)methyl]-1H-pyrazol-4-yl}methyl)-5-oxo-4,5-dihydrothieno[3,2-b]pyridine-7-carboxylic acid]
